Results reported in patent publication US11479539B2, “Small molecule modulators of the BTB domain of Keap1” (MedImmune Limited, priority 2017, dated 2022).
pEC50: −log10 of the molar value.

molecular target: Keap1 (Homo sapiens (Human), UniProt Q14145); test: HEK293 ARE luciferase assay; assay type: cell-based; conditions: HEK-293 ARE firefly luciferase transiently transfected cells; 18 h incubation; mean of 1 to 20 individual measurements
In short: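 Transiently transfected HEK-293 ARE firefly luciferase cells (10,000/well, DMEM with 10% FCS) exposed to compound, 10-point curve from 100 μM top, 0.3% DMSO, 18 h at 37 °C. SteadyGlo luminescence; activity normalised to 30 μM tBHQ (stimulator) and DMSO (neutral), activity threshold 50; means of 1-20 measurements.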

Sequence of Keap1 (Q14145 whole entry): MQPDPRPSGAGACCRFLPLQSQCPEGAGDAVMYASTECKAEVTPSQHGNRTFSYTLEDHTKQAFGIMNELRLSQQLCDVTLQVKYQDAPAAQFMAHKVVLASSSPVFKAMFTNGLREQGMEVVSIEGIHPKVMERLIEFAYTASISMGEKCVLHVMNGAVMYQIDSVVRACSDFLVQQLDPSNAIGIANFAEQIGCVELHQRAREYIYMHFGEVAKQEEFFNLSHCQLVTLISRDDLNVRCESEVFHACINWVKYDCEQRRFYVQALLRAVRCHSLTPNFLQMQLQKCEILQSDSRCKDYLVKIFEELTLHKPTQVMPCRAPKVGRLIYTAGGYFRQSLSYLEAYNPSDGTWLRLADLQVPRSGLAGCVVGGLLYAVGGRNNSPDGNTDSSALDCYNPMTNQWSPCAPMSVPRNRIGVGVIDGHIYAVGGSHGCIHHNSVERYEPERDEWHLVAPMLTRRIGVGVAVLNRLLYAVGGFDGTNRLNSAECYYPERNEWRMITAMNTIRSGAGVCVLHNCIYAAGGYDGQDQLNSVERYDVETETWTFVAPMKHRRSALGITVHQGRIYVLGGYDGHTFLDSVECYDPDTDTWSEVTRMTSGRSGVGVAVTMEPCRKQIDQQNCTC

In order of falling pEC50:
1. COC1(c2ncc(C(F)(F)F)cn2)C=C(C#N)C(=O)C(C)(C)C1 (single isomer, unassigned) [Compound 211, 3-methoxy-5,5-dimethyl-6-oxo-3-[5-(trifluoromethyl)pyrimidin-2-yl]cyclohex-1-ene-1-carbonitrile]  8.40
2. COC1(c2ncc(F)cc2-c2cnn3ccccc23)C=C(C#N)C(=O)C(C)(C)C1 (single isomer, unassigned) [Compound 219, 3-[5-fluoro-3-(pyrazolo[1,5-a]pyridin-3-yl)pyridin-2-yl]-3-methoxy-5,5-dimethyl-6-oxocyclohex-1-ene-1-carbonitrile]  8.30
3. COC1(c2ncc(F)cc2-c2cncc(C(C)(C)C#N)c2)C=C(C#N)C(=O)C(C)(C)C1 (single isomer, unassigned) [Compound 222, 3-[5′-(2-cyanopropan-2-yl)-5-fluoro[3,3′-bipyridin]-2-yl]-3-methoxy-5,5-dimethyl-6-oxocyclohex-1-ene-1-carbonitrile]  8.22
4. COC1(c2ncc(F)cc2-c2ccc3ncnn3c2)C=C(C#N)C(=O)C(C)(C)C1 (single isomer, unassigned) [Compound 212, 3-[5-fluoro-3-([1,2,4]triazolo[1,5-a]pyridin-6-yl)pyridin-2-yl]-3-methoxy-5,5-dimethyl-6-oxocyclohex-1-ene-1-carbonitrile]  8.15
5. COC1(c2ncc(F)cc2-c2cncc(S(=O)(=O)C(C)C)c2)C=C(C#N)C(=O)C(C)(C)C1 (single isomer, unassigned) [Compound 221, 3-{5-fluoro-5′-[(propan-2-yl)sulfonyl][3,3′-bipyridin]-2-yl}-3-methoxy-5,5-dimethyl-6-oxocyclohex-1-ene-1-carbonitrile]  8.10
6. COC1(c2ncc(F)cc2-c2ccnnc2)C=C(C#N)C(=O)C(C)(C)C1 (single isomer, unassigned) [Compound 220, 3-[5-fluoro-3-(pyridazin-4-yl)pyridin-2-yl]-3-methoxy-5,5-dimethyl-6-oxocyclohex-1-ene-1-carbonitrile]  8.00
7. COC1(c2ncc(F)cc2-c2cnccc2C#N)C=C(C#N)C(=O)C(C)(C)C1 (single isomer, unassigned) [Compound 217, 2′-[3-cyano-1-methoxy-5,5-dimethyl-4-oxocyclohex-2-en-1-yl]-5′-fluoro[3,3′-bipyridine]-4-carbonitrile]  7.92
8. COC1(c2ncc(Cl)cc2Cl)C=C(C#N)C(=O)C(C)(C)C1 (single isomer, unassigned) [Compound 225, 3-(3,5-dichloropyridin-2-yl)-3-methoxy-5,5-dimethyl-6-oxocyclohex-1-ene-1-carbonitrile]  7.92
9. COC1(c2ncc(F)cc2-c2ccc3nccn3c2)C=C(C#N)C(=O)C(C)(C)C1 (single isomer, unassigned) [Compound 226, 3-[5-fluoro-3-(imidazo[1,2-a]pyridin-6-yl)pyridin-2-yl]-3-methoxy-5,5-dimethyl-6-oxocyclohex-1-ene-1-carbonitrile]  7.89
10. COC1(c2ncc(F)cc2-c2cncc(OC(F)F)c2)C=C(C#N)C(=O)C(C)(C)C1 (single isomer, unassigned) [Compound 223, 3-[5′-(difluoromethoxy)-5-fluoro[3,3′-bipyridin]-2-yl]-3-methoxy-5,5-dimethyl-6-oxocyclohex-1-ene-1-carbonitrile]  7.85
11. COC1(c2ncc(F)cc2Cl)C=C(C#N)C(=O)C(C)(C)C1 (single isomer, unassigned) [Compound 224, 3-(3-chloro-5-fluoropyridin-2-yl)-3-methoxy-5,5-dimethyl-6-oxocyclohex-1-ene-1-carbonitrile]  7.85
12. COC1(c2ncc(F)cc2-c2cnnc(C)c2)C=C(C#N)C(=O)C(C)(C)C1 (single isomer, unassigned) [Compound 209, 3-[5-fluoro-3-(6-methylpyridazin-4-yl)pyridin-2-yl]-3-methoxy-5,5-dimethyl-6-oxocyclohex-1-ene-1-carbonitrile]  7.82
13. COC1(c2ncc(F)cc2-c2cncc(C(F)(F)F)c2)C=C(C#N)C(=O)C(C)(C)C1 (single isomer, unassigned) [Compound 215, 3-[5-fluoro-5′-(trifluoromethyl)[3,3′-bipyridin]-2-yl]-3-methoxy-5,5-dimethyl-6-oxocyclohex-1-ene-1-carbonitrile]  7.82
14. COC1(c2ncc(F)cc2-c2cncc(C(=O)N(C)C)c2)C=C(C#N)C(=O)C(C)(C)C1 (single isomer, unassigned) [Compound 227, 2′-(3-cyano-1-methoxy-5,5-dimethyl-4-oxocyclohex-2-en-1-yl)-5′-fluoro-N,N-dimethyl[3,3′-bipyridine]-5-carboxamide]  7.82
15. COC1(c2ncc(F)cc2-c2cnn(CC(F)(F)F)c2)C=C(C#N)C(=O)C(C)(C)C1 (single isomer, unassigned) [Compound 228, 3-{5-fluoro-3-[1-(2,2,2-trifluoroethyl)-1H-pyrazol-4-yl]pyridin-2-yl}-3-methoxy-5,5-dimethyl-6-oxocyclohex-1-ene-1-carbonitrile]  7.82
16. COC1(c2ncc(F)cc2-c2cnc(C(F)(F)F)nc2)C=C(C#N)C(=O)C(C)(C)C1 (single isomer, unassigned) [Compound 210, 3-{5-fluoro-3-[2-(trifluoromethyl)pyrimidin-5-yl]pyridin-2-yl}-3-methoxy-5,5-dimethyl-6-oxocyclohex-1-ene-1-carbonitrile]  7.70
17. COC1(c2ncc(F)cn2)C=C(C#N)C(=O)C(C)(C)C1 (single isomer, unassigned) [Compound 216, 3-(5-fluoropyrimidin-2-yl)-3-methoxy-5,5-dimethyl-6-oxocyclohex-1-ene-1-carbonitrile]  7.68
18. COc1cc(-c2cc(F)cnc2C2(OC)C=C(C#N)C(=O)C(C)(C)C2)c(Cl)cn1 (single isomer, unassigned) [Compound 218, 3-(5′-chloro-5-fluoro-2′-methoxy[3,4′-bipyridin]-2-yl)-3-methoxy-5,5-dimethyl-6-oxocyclohex-1-ene-1-carbonitrile]  7.64
19. COC1(c2ncc(F)cc2-c2ccnc(S(=O)(=O)N(C)C)c2)C=C(C#N)C(=O)C(C)(C)C1 (single isomer, unassigned) [Compound 207, 2-[3-cyano-1-methoxy-5,5-dimethyl-4-oxocyclohex-2-en-1-yl]-5-fluoro-N,N-dimethyl[3,4′-bipyridine]-2′-sulfonamide]  7.32
20. COC1(c2ncc(F)cc2-c2cnc3c(c2)OCCN3C)C=C(C#N)C(=O)C(C)(C)C1 (single isomer, unassigned) [Compound 205, 3-[5-fluoro-3-(4-methyl-3,4-dihydro-2H-pyrido[3,2-b][1,4]oxazin-7-yl)pyridin-2-yl]-3-methoxy-5,5-dimethyl-6-oxocyclohex-1-ene-1-carbonitrile]  7.28
21. COC1(c2ncc(Cl)cc2C(F)F)C=C(C#N)C(=O)C(C)(C)C1 (single isomer, unassigned) [Compound 206, 3-[5-chloro-3-(difluoromethyl)pyridin-2-yl]-3-methoxy-5,5-dimethyl-6-oxocyclohex-1-ene-1-carbonitrile]  6.80
22. COC1(c2ncc(Cl)cc2C(F)(F)F)C=C(C#N)C(=O)C(C)(C)C1 (single isomer, unassigned) [Compound 208, 3-[5-chloro-3-(trifluoromethyl)pyridin-2-yl]-3-methoxy-5,5-dimethyl-6-oxocyclohex-1-ene-1-carbonitrile]  6.64
